These results are taken from publication PMC9429672, “Structure and diffusive dynamics of aspartate α-decarboxylase (ADC) liganded with D-serine in aqueous solution” (Physical Chemistry Chemical Physics, 2022).

The target in the test is T1, aspartate α-decarboxylase (ADC) (Escherichia coli, UniProt A0A4Y8GT61).
T1 construct: gene panD; recombinant, purified from E. coli by earlier protocols; zymogen self-cleaved into alpha and beta chains, pyruvoyl cofactor at beta N-terminus; homotetramer
Briefly: X-ray crystal structure of soaked crystal. The test is classed as binding. The note with it: crystals in 1.8 M ammonium sulphate, 100 mM sodium citrate pH 4.5, D-serine soak about 2 min; active site; two ligand conformers (60% / 40% occupancy); inhibitor.

SMILES strings stand for the structures.

On to `N[C@H](CO)C(=O)O` [D-serine], for which the “X-ray crystal structure of soaked crystal” value was “The crystal structure of ADC in complex with D-serine was determined”.
